Here are results for 9 compounds from PubChem BioAssay AID1259407 (Chemical Carcinogenesis Research Information System (CCRIS), 2018).

The series concerns CCRIS mutagenicity, Ames/micronucleus/aberration tests. Kind of series: CCRIS mutagenicity studies.
[1] abbreviates: Test System: AMES SALMONELLA TYPHIMURIUM, Strain/Indicator: TA98, Metabolic Activation: NONE, Method: STANDARD PLATE.
[2] abbreviates: Test System: AMES SALMONELLA TYPHIMURIUM, Strain/Indicator: TA100, Metabolic Activation: NONE, Method: STANDARD PLATE.
Where [3] appears, read: Test System: AMES SALMONELLA TYPHIMURIUM, Strain/Indicator: TA97, Metabolic Activation: HAMSTER, LIVER, S-9, AROCLOR 1254 (10 OR 30%), Method: PREINCUBATION
Where [4] appears, read: Test System: AMES SALMONELLA TYPHIMURIUM, Strain/Indicator: TA97, Metabolic Activation: NONE, Method: PREINCUBATION
Where [5] appears, read: Test System: AMES SALMONELLA TYPHIMURIUM, Strain/Indicator: TA97, Metabolic Activation: RAT, LIVER, S-9, AROCLOR 1254 (10 OR 30%), Method: PREINCUBATION
[6] abbreviates: Test System: AMES SALMONELLA TYPHIMURIUM, Strain/Indicator: TA98, Metabolic Activation: HAMSTER, LIVER, S-9, AROCLOR 1254 (10 OR 30%), Method: PREINCUBATION
Where [7] appears, read: Test System: AMES SALMONELLA TYPHIMURIUM, Strain/Indicator: TA98, Metabolic Activation: NONE, Method: PREINCUBATION
Setting [8] is: Test System: AMES SALMONELLA TYPHIMURIUM, Strain/Indicator: TA98, Metabolic Activation: RAT, LIVER, S-9, AROCLOR 1254 (10 OR 30%), Method: PREINCUBATION
Setting [9] is: Test System: AMES SALMONELLA TYPHIMURIUM, Strain/Indicator: TA100, Metabolic Activation: HAMSTER, LIVER, S-9, AROCLOR 1254 (10 OR 30%), Method: PREINCUBATION
The mark [10] stands for this setting: Test System: AMES SALMONELLA TYPHIMURIUM, Strain/Indicator: TA100, Metabolic Activation: NONE, Method: PREINCUBATION
Setting [11] is: Test System: AMES SALMONELLA TYPHIMURIUM, Strain/Indicator: TA100, Metabolic Activation: RAT, LIVER, S-9, AROCLOR 1254 (10 OR 30%), Method: PREINCUBATION
Where [12] appears, read: Test System: AMES SALMONELLA TYPHIMURIUM, Strain/Indicator: TA1535, Metabolic Activation: HAMSTER, LIVER, S-9, AROCLOR 1254 (10 OR 30%), Method: PREINCUBATION
The mark [13] stands for this setting: Test System: AMES SALMONELLA TYPHIMURIUM, Strain/Indicator: TA1535, Metabolic Activation: NONE, Method: PREINCUBATION
Setting [14] is: Test System: AMES SALMONELLA TYPHIMURIUM, Strain/Indicator: TA1535, Metabolic Activation: RAT, LIVER, S-9, AROCLOR 1254 (10 OR 30%), Method: PREINCUBATION

Active and inactive are the calls of the source. How the calls were made is not given here.

`O=C1CN=C(c2ccccc2)c2cc([N+](=O)[O-])ccc2N1`: the mutagenic call is, setting by setting: under setting [1], “inactive; negative”; (Test System: AMES SALMONELLA TYPHIMURIUM, Strain/Indicator: TA98, Metabolic Activation: RAT, LIVER, S-9, AROCLOR 1254, Method: STANDARD PLATE) “inactive; negative”; under setting [2], “inactive; negative”; (Test System: AMES SALMONELLA TYPHIMURIUM, Strain/Indicator: TA100, Metabolic Activation: RAT, LIVER, S-9, AROCLOR 1254, Method: STANDARD PLATE) “inactive; negative”; (Test System: AMES SALMONELLA TYPHIMURIUM, Strain/Indicator: TA102, Metabolic Activation: NONE, Method: STANDARD PLATE) “inactive; negative”; (Test System: AMES SALMONELLA TYPHIMURIUM, Strain/Indicator: TA102, Metabolic Activation: RAT, LIVER, S-9, AROCLOR 1254, Method: STANDARD PLATE) “inactive; negative”. The mutagenic call was “inactive; negative” (Test System: AMES SALMONELLA TYPHIMURIUM, Strain/Indicator: TA1535, Metabolic Activation: NONE, Method: STANDARD PLATE); “inactive; negative” (Test System: AMES SALMONELLA TYPHIMURIUM, Strain/Indicator: TA1535, Metabolic Activation: RAT, LIVER, S-9, AROCLOR 1254, Method: STANDARD PLATE); “inactive; negative” (Test System: AMES SALMONELLA TYPHIMURIUM, Strain/Indicator: TA1537, Metabolic Activation: NONE, Method: STANDARD PLATE); “inactive; negative” (Test System: AMES SALMONELLA TYPHIMURIUM, Strain/Indicator: TA1537, Metabolic Activation: RAT, LIVER, S-9, AROCLOR 1254, Method: STANDARD PLATE); “inactive; negative” (Test System: E. COLI, Strain/Indicator: WP2 UVRA, Metabolic Activation: NONE, Method: STANDARD PLATE); “inactive; negative” (Test System: E. COLI, Strain/Indicator: WP2 UVRA, Metabolic Activation: RAT, LIVER, S-9, AROCLOR 1254, Method: STANDARD PLATE).

On to `CC(Br)C(=O)Nc1ccccc1` (centres undefined), for which the mutagenic call was “active; positive” (Test System: AMES SALMONELLA TYPHIMURIUM, Strain/Indicator: TA100, Metabolic Activation: MOUSE, LIVER, S-9, AROCLOR 1254, Method: STANDARD PLATE) and “inactive; negative” under setting [2].

Consider `Nc1ccc2ccc3cc4ccccc4c4ccc1c2c34`, for which the mutagenic call runs as follows: (Test System: AMES SALMONELLA TYPHIMURIUM, Strain/Indicator: TA98(1,8-DNP6), Metabolic Activation: NONE) “active; positive”; (Test System: AMES SALMONELLA TYPHIMURIUM, Strain/Indicator: TA98(1,8-DNP6), Metabolic Activation: RAT, LIVER, S-9, AROCLOR 1254) “active; positive”; (Test System: AMES SALMONELLA TYPHIMURIUM, Strain/Indicator: TA98(NR), Metabolic Activation: NONE) “active; positive”; (Test System: AMES SALMONELLA TYPHIMURIUM, Strain/Indicator: TA98(NR), Metabolic Activation: RAT, LIVER, S-9, AROCLOR 1254) “active; positive”; (Test System: AMES SALMONELLA TYPHIMURIUM, Strain/Indicator: TA98, Metabolic Activation: NONE) “active; positive”; (Test System: AMES SALMONELLA TYPHIMURIUM, Strain/Indicator: TA98, Metabolic Activation: RAT, LIVER, S-9, AROCLOR 1254) “active; positive”.

Consider `CCCc1cc(=O)oc2c3c(c4c(c12)OC(C)(C)CC4)O[C@@H](C)[C@H](C)[C@@H]3O`, for which the mutagenic call was “inactive; negative” (Test System: Mouse lymphoma, Strain/Indicator: L5178Y (tk+/tk-), Metabolic Activation: None, Method: Suspension/plate) and “inactive; negative” (Test System: Mouse lymphoma, Strain/Indicator: L5178Y (tk+/tk-), Metabolic Activation: Rat, Liver, S-9, Aroclor 1254, Method: Suspension/plate).

For `C=C(C)[C@@]12OC3(c4ccccc4)O[C@@H]1[C@@H]1[C@@H]4OC4(CO)[C@@H](O)[C@]4(O)C(=O)C(C)=C[C@H]4[C@@]1(O3)[C@H](C)[C@H]2OC(=O)/C=C/C=C/c1ccccc1` (some centres undefined), the mutagenic call was “inactive; negative” under setting [3]; “inactive; negative” under setting [4]; “inactive; negative” under setting [5]; “inactive; negative” under setting [6]; “inactive; negative” under setting [7]; “inactive; negative” under setting [8]. For the same compound, the mutagenic call was “inactive; negative” under setting [9]; “inactive; negative” under setting [10]; “inactive; negative” under setting [11]; “inactive; negative” under setting [12]; “inactive; negative” under setting [13]; “inactive; negative” under setting [14].

Consider `COC(C)=O`, for which the mutagenic call by setting is: under setting [3], “inactive; negative”; under setting [4], “inactive; negative”; under setting [5], “inactive; negative”; under setting [6], “inactive; negative”; under setting [7], “inactive; negative”; under setting [8], “inactive; negative”. For the same compound, the mutagenic call is “inactive; negative” under setting [9]; “inactive; negative” under setting [10]; “inactive; negative” under setting [11]; “inactive; negative” under setting [12]; “inactive; negative” under setting [13]; “inactive; negative” under setting [14]. In addition, the mutagenic call was “inactive; negative” (Test System: AMES SALMONELLA TYPHIMURIUM, Strain/Indicator: TA1537, Metabolic Activation: HAMSTER, LIVER, S-9, AROCLOR 1254 (30%), Method: PREINCUBATION); “inactive; negative” (Test System: AMES SALMONELLA TYPHIMURIUM, Strain/Indicator: TA1537, Metabolic Activation: NONE, Method: PREINCUBATION); “inactive; negative” (Test System: AMES SALMONELLA TYPHIMURIUM, Strain/Indicator: TA1537, Metabolic Activation: RAT, LIVER, S-9, AROCLOR 1254 (30%), Method: PREINCUBATION).

With `BrCc1c2ccccc2cc2c1ccc1ccccc12`, the mutagenic call under setting [1] was “active; positive”; the mutagenic call under setting [2] was “active; positive”; the mutagenic call (Test System: CHINESE HAMSTER V-79, Strain/Indicator: V-79/8-AZAGUANINE, Metabolic Activation: NONE, Method: STANDARD PLATE) is “active; positive”; the mutagenic call (Test System: E. COLI, Strain/Indicator: WP2, Metabolic Activation: NONE, Method: FLUCTUATION) was “active; positive”; the mutagenic call (Test System: E. COLI, Strain/Indicator: WP2 UVRA, Metabolic Activation: NONE, Method: FLUCTUATION) is “active; positive”; the mutagenic call (Test System: UDS HUMAN CELLS, Strain/Indicator: THY INCORP (NON-S-PHASE), Metabolic Activation: NONE, Method: LIQUID SCINTILLATION COUNTING) is “active; positive”. In addition, the mutagenic call reads like this: (Test System: UDS HUMAN FIBROBLASTS, Strain/Indicator: THY INCORP (NON-S-PHASE), Metabolic Activation: NONE, Method: AUTORADIOGRAPHY) “active; positive”; (Test System: UDS RODENT CELLS, Strain/Indicator: THY INCORP (NON-S-PHASE), Metabolic Activation: NONE, Method: LIQUID SCINTILLATION COUNTING) “active; positive”.

For `c1ccc2c(c1)sc1ccccc12`, the mutagenic call (Test System: CHINESE HAMSTER OVARY, Strain/Indicator: CHO-K1-BH4 (HGPRT)/6-THIOGUANINE, Metabolic Activation: RAT, LIVER, S-9, AROCLOR (4%)) was “inactive; negative”.

In the case of `COc1ccc(CO)cc1`, the mutagenic call under setting [2] was “inactive; negative”.
